Consider 50 compounds from ChEMBL document CHEMBL4219156, “Synthesis, evaluation and CoMFA/CoMSIA study of nitrofuranyl methyl N-heterocycles as novel antitubercular agents” (2018).

Structures are written as SMILES. Values after ≈ are worked out from the molar mass of the structure shown. Where only a bound is given, the exact number is not on record here.

For this experiment, the system named is Mycobacterium tuberculosis. Put plainly: Antitubercular activity against Mycobacterium tuberculosis H37Rv ATCC 27294 after 7 days by MABA. Format: functional. Also noted: -logMIC: unit not given here. The note with it: for MIC: Mycobacterium tuberculosis, H37Rv ATCC 27294, 168 h. In general terms: Resazurin is reduced to fluorescent resorufin, in cell work by metabolically active cells.

In general, MIC refers to the lowest concentration that inhibits growth of the organism. As for `CC(C)(C)c1ccc(N2CCN(Cc3ccc([N+](=O)[O-])o3)CC2)cc1`, the “-logMIC” value is listed as 4.796 and the MIC came out at 0.016 µg/mL (≈ 0.0466 µM).
Turning to `CCC(C)C(=O)N1CCN(Cc2ccc([N+](=O)[O-])o2)CC1` (stereo not drawn), the “-logMIC” value came to 3.303 and it took 3.09 µg/mL (≈ 10.5 µM) to inhibit growth (MIC).
For `CC(C)(C)C(=O)N1CCN(Cc2ccc([N+](=O)[O-])o2)CC1`, in that order: 3.023 and 0.948 µg/mL (≈ 3.21 µM).
The corresponding values for `O=C(CN1CCN(Cc2ccc([N+](=O)[O-])o2)CC1)Nc1ccccc1` are 1.99 and 10.2 µg/mL (≈ 29.7 µM).
In turn, `O=C(C1CCCCC1)N1CCC2(CCN(Cc3ccc([N+](=O)[O-])o3)CC2)CC1` showed an MIC of 3.87 µg/mL (≈ 9.93 µM).
For `COc1ccc2c(c1)CN(Cc1ccc([N+](=O)[O-])o1)CC2`, the “-logMIC” value came out at 3.918 and 0.121 µg/mL (≈ 0.42 µM) was the least that counted as inhibitory (MIC).
`COc1ccc(S(=O)(=O)N2CC3CN(Cc4ccc([N+](=O)[O-])o4)CC3C2)cc1` (stereo not drawn) returned an MIC of 0.405 µg/mL (≈ 0.994 µM).
Regarding `O=[N+]([O-])c1ccc(CN2Cc3ccc(F)cc3C2)o1`, the “-logMIC” value was 3.31 and it took 0.49 µg/mL (≈ 1.87 µM) to inhibit growth (MIC).
For `CC(=O)N1CCN(Cc2ccc([N+](=O)[O-])o2)CC1`, in that order: 1.922 and 12 µg/mL (≈ 47.3 µM).
With `O=C(C1CCCCC1)N1CCN(Cc2ccc([N+](=O)[O-])o2)CC1`, the “-logMIC” value is recorded as 3.621 and inhibition of growth (MIC) required 0.239 µg/mL (≈ 0.744 µM).
Compound `O=[N+]([O-])c1ccc(S(=O)(=O)N2CC3CN(Cc4ccc([N+](=O)[O-])o4)CC3C2)cc1` (stereo not drawn) returned a minimal inhibitory concentration (MIC) of 0.235 µg/mL (≈ 0.556 µM).
The same measure, in the same setting: next, `CC(C)CC(=O)N1CCC2(CCN(Cc3ccc([N+](=O)[O-])o3)CC2)CC1`: 2.41 µg/mL (≈ 6.63 µM).
On to `N#Cc1ccc2c(c1)CN(Cc1ccc([N+](=O)[O-])o1)CC2`, for which the “-logMIC” value was 3.988 and the MIC stood at 0.103 µg/mL (≈ 0.364 µM).
For `CC(C)(C)OC(=O)CN1CCN(Cc2ccc([N+](=O)[O-])o2)CC1`, the “-logMIC” value is listed as 2.514 and the minimal inhibitory concentration (MIC) worked out at 3.06 µg/mL (≈ 9.4 µM).
`CC(C)(C)c1cccc(N2CCC3(CCN(Cc4ccc([N+](=O)[O-])o4)CC3)CC2)c1`: the “-logMIC” value was more than 4.796 and the MIC is less than 0.016 µg/mL.
For `O=C(c1ccccc1)N1CCN(Cc2ccc([N+](=O)[O-])o2)CC1`, in that order: 2.733 and 1.85 µg/mL (≈ 5.86 µM).
For `COc1ccc(CON=C2CCN(Cc3ccc([N+](=O)[O-])o3)CC2)cc1`, in that order: 4.293 and 0.051 µg/mL (≈ 0.142 µM).
On to `CN(C)C(=O)CN1CCN(Cc2ccc([N+](=O)[O-])o2)CC1`, for which the “-logMIC” value is 1.516 and the lowest concentration to inhibit growth (MIC) was 30.5 µg/mL (≈ 103 µM).
`CC(=O)N1CCC2(CCN(Cc3ccc([N+](=O)[O-])o3)CC2)CC1` registered an MIC of 32 µg/mL (≈ 99.6 µM).
Regarding `O=[N+]([O-])c1ccc(CN2CCc3ccc(Cl)cc3C2)o1`, the “-logMIC” value turned out to be 3.962 and the minimum inhibitory concentration (MIC) stood at 0.109 µg/mL (≈ 0.372 µM).
The corresponding values for `O=C(c1ccc(F)cc1)N1CCN(Cc2ccc([N+](=O)[O-])o2)CC1` are 2.779 and 1.66 µg/mL (≈ 4.99 µM).
`O=[N+]([O-])c1ccc(CN2CC3CN(S(=O)(=O)c4ccc(C(F)(F)F)cc4)CC3C2)o1` (stereo not drawn): the lowest concentration to inhibit growth (MIC) was 0.123 µg/mL (≈ 0.276 µM).
Regarding `CNc1ccc(C(=O)N2CCN(Cc3ccc([N+](=O)[O-])o3)CC2)cc1`, the “-logMIC” value was 3.315 and 0.484 µg/mL (≈ 1.41 µM) was the least that counted as inhibitory (MIC).
The corresponding values for `CCON=C1CCN(Cc2ccc([N+](=O)[O-])o2)CC1` are 3.029 and 0.935 µg/mL (≈ 3.5 µM).
The corresponding values for `COc1ccc(C(=O)N2CCN(Cc3ccc([N+](=O)[O-])o3)CC2)cc1` are 3.408 and 0.391 µg/mL (≈ 1.13 µM).
For the compound `CC(C)CC(=O)N1CCN(Cc2ccc([N+](=O)[O-])o2)CC1`, the “-logMIC” value was determined as 2.51 and the MIC stood at 0.498 µg/mL (≈ 1.69 µM).
In turn, `CC(=O)CCN1CC2CN(Cc3ccc([N+](=O)[O-])o3)CC2C1` (stereo not drawn) had an MIC of 32 µg/mL (≈ 104 µM).
Same read-out and setting: next, `CC(C)(C)C(=O)N1CC2CN(Cc3ccc([N+](=O)[O-])o3)CC2C1` (stereo not drawn): 1.55 µg/mL (≈ 4.81 µM).
As to `O=[N+]([O-])c1ccc(CN2CCC(c3ccc(C(F)(F)F)cc3)CC2)o1`, the “-logMIC” value is listed as 2.609 and inhibition of growth (MIC) required 2.46 µg/mL (≈ 6.94 µM).
Regarding `O=[N+]([O-])c1ccc(CN2Cc3ccccc3C2)o1`, the “-logMIC” value is reported as 2.749 and the MIC came to 1.78 µg/mL (≈ 7.3 µM).
For `O=C(CN1CCN(Cc2ccc([N+](=O)[O-])o2)CC1)Oc1ccccc1`, in that order: 3.325 and 0.473 µg/mL (≈ 1.37 µM).
The corresponding values for `O=[N+]([O-])c1ccc(CN2CCc3ccc(Br)cc3C2)o1` are 4.206 and 0.062 µg/mL (≈ 0.184 µM).
As to `O=C(C1CCCCC1)N1CC2CN(Cc3ccc([N+](=O)[O-])o3)CC2C1` (stereo not drawn), 7.68 µg/mL (≈ 22.1 µM) was the least that counted as inhibitory (MIC).
Same read-out and setting: next, `CC(C)(C)c1ccc(S(=O)(=O)N2CC3CN(Cc4ccc([N+](=O)[O-])o4)CC3C2)cc1` (stereo not drawn): 0.126 µg/mL (≈ 0.291 µM).
Consider `O=[N+]([O-])c1ccc(CN2CCC3(CC2)CCN(S(=O)(=O)c2ccc(Cl)cc2)CC3)o1`, for which the “-logMIC” value is 4.51 and the minimum inhibitory concentration (MIC) was found to be 0.031 µg/mL (≈ 0.0683 µM).
Consider `O=[N+]([O-])c1ccc(CN2CCC(c3ccc(Br)cc3)CC2)o1`, for which the “-logMIC” value is given as 3.31 and the minimal inhibitory concentration (MIC) came out at 0.49 µg/mL (≈ 1.34 µM).
On to `O=[N+]([O-])c1ccc(CN2CCC(c3ccc(F)cc3)CC2)o1`, for which the “-logMIC” value stood at 3.337 and the MIC turned out to be 0.46 µg/mL (≈ 1.51 µM).
Turning to `CC(=O)CN1CCN(Cc2ccc([N+](=O)[O-])o2)CC1`, the “-logMIC” value is given as 2.117 and the lowest concentration to inhibit growth (MIC) was 7.63 µg/mL (≈ 28.6 µM).
The corresponding values for `O=[N+]([O-])c1ccc(CN2CCC(=NOCc3ccc(C(F)(F)F)cc3)CC2)o1` are 3.673 and 0.212 µg/mL (≈ 0.534 µM).
For `CCOC(=O)CN1CCN(Cc2ccc([N+](=O)[O-])o2)CC1`, the “-logMIC” value was 2.414 and the MIC came out at 3.85 µg/mL (≈ 13 µM).
For the compound `O=[N+]([O-])c1ccc(CN2CCC(=NOCc3ccccc3)CC2)o1`, the “-logMIC” value is reported as 3.608 and the minimum inhibitory concentration (MIC) stood at 0.247 µg/mL (≈ 0.75 µM).
Turning to `COc1ccc(C2CCN(Cc3ccc([N+](=O)[O-])o3)CC2)cc1`, the “-logMIC” value is on record as 3.4 and inhibition of growth (MIC) required 0.398 µg/mL (≈ 1.26 µM).
Consider `CON=C1CCN(Cc2ccc([N+](=O)[O-])o2)CC1`, for which the “-logMIC” value was 2.701 and the lowest concentration to inhibit growth (MIC) was 1.99 µg/mL (≈ 7.85 µM).
The corresponding values for `O=[N+]([O-])c1ccc(CN2CCNCC2)o1` are 3.616 and 0.242 µg/mL (≈ 1.15 µM).
For `CC(C)(C)c1ccc(N2CCC3(CCN(Cc4ccc([N+](=O)[O-])o4)CC3)CC2)cc1`, in that order: more than 4.796 and less than 0.016 µg/mL.
For `O=[N+]([O-])c1ccc(CN2CCC(c3ccc(OC(F)(F)F)cc3)CC2)o1`, in that order: 3.303 and 0.497 µg/mL (≈ 1.34 µM).
In the case of `O=[N+]([O-])c1ccc(CON=C2CCN(Cc3ccc([N+](=O)[O-])o3)CC2)cc1`, the “-logMIC” value was determined as 3.742 and the lowest concentration to inhibit growth (MIC) was 0.181 µg/mL (≈ 0.484 µM).
On to `N#Cc1ccc2c(c1)CN(Cc1ccc([N+](=O)[O-])o1)C2`, for which the “-logMIC” value is listed as 3.766 and the MIC was 0.171 µg/mL (≈ 0.635 µM).
For the compound `NNC(=O)c1ccncc1` [ISONIAZID], the minimal inhibitory concentration (MIC) came to 0.038 µg/mL (≈ 0.277 µM).
Consider `CO[C@H]1/C=C/O[C@@]2(C)Oc3c(C)c(O)c4c(O)c(c(/C=N/N5CCN(C)CC5)c(O)c4c3C2=O)NC(=O)/C(C)=C\C=C\[C@H](C)[C@H](O)[C@@H](C)[C@@H](O)[C@@H](C)[C@H](OC(C)=O)[C@@H]1C` [RIFAMPIN], for which the lowest concentration to inhibit growth (MIC) was 0.127 µg/mL (≈ 0.154 µM).
